assay: Tested for 50% of inhibition of Osteoclastic acid phosphatase (OAP) activity, determined using dose-response curve

| IC50 | SMILES |
| --- | --- |
| 6.3 µM | O=P(O)(O)C(Cc1ccc(-c2ccccc2)cc1)c1cccc2ccccc12 (configuration not stated) [(2-Biphenyl-4-yl-1-naphthalen-1-yl-ethyl)-phosphonic acid] |
| 30 µM | O=P(O)(O)Cc1cccc2ccccc12 [naphthalen-1-ylmethylphosphonic acid] |
| 21 µM | O=P(O)(O)C(Cc1ccccc1)c1cccc2ccccc12 (configuration not stated) [(1-Naphthalen-1-yl-2-phenyl-ethyl)-phosphonic acid] |
| 21 µM | O=P(O)(O)C(Cc1ccc(Cl)cc1)c1cccc2ccccc12 (configuration not stated) [[2-(4-Chloro-phenyl)-1-naphthalen-1-yl-ethyl]-phosphonic acid] |
| 11 µM | Cc1ccc2ccccc2c1C(CC1CCCCC1)P(=O)(O)O (configuration not stated) [[2-Cyclohexyl-1-(2-methyl-naphthalen-1-yl)-ethyl]-phosphonic acid] |
| 1.4 µM | O=C(c1ccccc1)C(C(=O)c1ccccc1)(c1cccc2ccccc12)P(=O)(O)O [2-(naphthalen-1-yl)-1,3-dioxo-1,3-diphenylpropan-2-ylphosphonic acid] |
| 11.4 µM | O=P(O)(O)C(CC1CCCCC1)c1cccc2ccccc12 (configuration not stated) [(2-Cyclohexyl-1-naphthalen-1-yl-ethyl)-phosphonic acid] |

Reference: BindingDB's records for doi:10.1016/0960-894X(95)00299-9 (1995)
